Assay results reported in PMC8312464, “Inhibition of heat shock proteins increases autophagosome formation, and reduces the expression of APP, Tau, SOD1 G93A and TDP-43” (Aging (Albany NY), 2021).
pIC50: −log10 of the molar value.

Legend:
GRP78 = biological target: T1, GRP78 (Homo sapiens, UniProt P11021); test: ATPase activity (ATP-lite luminescence) of immunoprecipitated GRP78 on Sepharose beads; type: biochemical
T1 construct: gene HSPA5; GRP78 expressed from a plasmid in GBM12 cells, immuno-precipitated with an antibody to the COOH terminal portion

HSP90 = biological target: T2, HSP90; test: ATPase activity (ATP-lite luminescence) of immunoprecipitated FLAG-HSP90 on Sepharose beads; type: biochemical
T2 construct: FLAG-tagged HSP90 expressed in GBM12 cells, immuno-precipitated by its tag
Excerpt: ATPase activity (ATP-lite luminescence) of immunoprecipitated FLAG-HSP90 on Sepharose beads on HSP90 | In a dose-dependent fashion AR12 inhibited the ATPase activities of HSP90, HSP70 and GRP78

T1 sequence (P11021 19-654): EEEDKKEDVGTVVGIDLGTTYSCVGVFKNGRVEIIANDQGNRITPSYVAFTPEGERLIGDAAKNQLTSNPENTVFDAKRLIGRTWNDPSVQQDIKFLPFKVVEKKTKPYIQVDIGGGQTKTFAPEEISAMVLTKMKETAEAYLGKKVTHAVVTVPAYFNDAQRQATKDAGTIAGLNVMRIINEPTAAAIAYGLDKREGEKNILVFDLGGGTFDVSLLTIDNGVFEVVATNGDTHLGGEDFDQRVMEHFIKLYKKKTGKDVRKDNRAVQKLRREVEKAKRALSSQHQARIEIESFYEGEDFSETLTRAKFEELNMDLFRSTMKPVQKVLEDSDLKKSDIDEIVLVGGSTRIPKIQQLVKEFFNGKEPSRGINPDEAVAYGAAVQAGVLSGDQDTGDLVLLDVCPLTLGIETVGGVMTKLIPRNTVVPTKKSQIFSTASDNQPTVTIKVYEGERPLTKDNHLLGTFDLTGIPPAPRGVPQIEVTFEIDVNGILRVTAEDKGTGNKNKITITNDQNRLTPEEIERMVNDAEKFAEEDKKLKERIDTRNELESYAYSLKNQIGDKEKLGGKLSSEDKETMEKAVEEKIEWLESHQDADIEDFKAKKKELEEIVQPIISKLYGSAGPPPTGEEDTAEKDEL

`NCC(=O)Nc1ccc(-n2nc(C(F)(F)F)cc2-c2ccc3c(ccc4ccccc43)c2)cc1` [AR12] was tested. Which pIC50 (GRP78) did it give?
The pIC50 was about 7.10.

What about the pIC50 (HSP90) of the same compound?
The pIC50 was about 6.52.
